Assay type in all cases: cell-based
The test system of assay [1] is DU 145, hormone-independent human prostate carcinoma cells. Briefly: Proliferation assay, DU145 (crystal violet). The note with it: DU145, 4 days, read-out: Inhibition of DU145 cell proliferation IC50. As for the experimental part:
(§1) Cultivated tumour cells (HeLa, human cervical tumour cells, ATCC CCL-2; NCI-H460, human non-small cell lung carcinoma cells, ATCC HTB-177; A2780, human ovarian carcinoma cells, ECACC #93112519; DU 145, hormone-independent human prostate carcinoma cells, ATCC HTB-81; HeLa-MaTu-ADR, multidrug-resistant human cervical carcinoma cells, EPO-GmbH Berlin; Caco-2, human colorectal carcinoma cells, ATCC HTB-37; B16F10, mouse melanoma cells, ATCC CRL-6475) were plated at a density of 5,000 cells/well (DU145, HeLa-MaTu-ADR), 3,000 cells/well (NCI-H460, HeLa), 2,500 cells/well (A2780), 1,500 cells/well (Caco-2), or 1,000 cells/well (B16F10) in a 96-well multititer plate in 200 μL of their respective growth medium supplemented 10% fetal calf serum. After 24 hours, the cells of one plate (zero-point plate) were stained with crystal violet (see below), while the medium of the other plates was replaced by fresh culture medium (200 μl), to which the test substances were added in various concentrations (0 μM, as well as in the range of 0.001-10 μM; the final concentration of the solvent dimethyl sulfoxide was 0.5%). The cells were incubated for 4 days in the presence of test substances. Cell proliferation was determined by staining the cells with crystal violet: the cells were fixed by adding 20 μl/measuring point of an 11% glutaric aldehyde solution for 15 minutes at room temperature. After three washing cycles of the fixed cells with water, the plates were dried at room temperature. The cells were stained by adding 100 μl/measuring point of a 0.1% crystal violet solution (pH 3.0). After three washing cycles of the stained cells with water, the plates were dried at room temperature. The dye was dissolved by adding 100 μl/measuring point of a 10% acetic acid solution. The extinction was determined by photometry at a wavelength of 595 nm. The change of cell number, in percent, was calculated by normalization of the measured values to the extinction values of the zero-point plate (=0%) and the extinction of the untreated (0 μm) cells (=100%). The IC50 values (inhibitory concentration at 50% of maximal effect) were determined by means of a 4 parameter fit. Non-adherent MOLM-13 human acute myeloid leukemia cells (DSMZ ACC 554) were seeded at a density of 5,000 cells/well in a 96-well multititer plate in 100 μL of growth medium supplemented 10% fetal calf serum. After 24 hours, cell viability of one plate (zero-point plate) was determined with the Cell Titre-Glo Luminescent Cell Viability Assay (Promega), while 50 μL of test compound containing medium was added to the wells of the other plates (final concentrations in the range of 0.001-10 μM and DMSO controls; the final concentration of the solvent dimethyl sulfoxide was 0.5%). Cell viability was assessed after 72-hour exposure with the Cell Titre-Glo Luminescent Cell Viability Assay (Promega).

In assay [2] the test system is NCI-H460, human non-small cell lung carcinoma cells. As to the kind of experiment: Proliferation assay, NCI-H460 (crystal violet). The note with it: NCI-H460, 4 days, read-out: Inhibition of NCI-H460 cell proliferation IC50. As for the experimental part: as §1
Assay [3] relates to Caco-2, human colorectal carcinoma cells. As to the kind of experiment: Proliferation assay, Caco-2 (crystal violet). The note with it: Caco-2, 4 days, read-out: Inhibition of Caco-2 cell proliferation IC50. How it is done: as §1
The subject of assay [4] is B16F10, mouse melanoma cells. As to the kind of experiment: Proliferation assay, B16F10 (crystal violet). The note with it: B16F10, 4 days, read-out: Inhibition of B16F10 cell proliferation IC50. How it is done:
as §1

Assay [5] relates to HeLa, human cervical tumour cells. As to the kind of experiment: Proliferation assay, HeLa (crystal violet). The note with it: 4 days, read-out: Inhibition of HeLa cell proliferation IC50. As for the experimental part: as §1
Assay [6] relates to HeLa-MaTu-ADR, multidrug-resistant human cervical carcinoma cells. As to the kind of experiment: Proliferation assay, HeLa-MaTu-ADR (crystal violet). Conditions: 4 days, read-out: Inhibition of HeLa-MaTu-ADR cell proliferation IC50. As for the experimental part: as §1

These results are taken from patent US9650340B2, “5-fluoro-N-(pyridin-2-yl)pyridin-2-amine derivatives containing a sulfoximine group” (BAYER PHARMA AKTIENGESELLSCHAFT, priority 2012, dated 2017).

Where a name gives a salt, the structure may show the parent alone. Read-outs that look alike come from different tables or passages of the source.

With `COc1cc(F)ccc1-c1cc(Nc2cc(CS(C)(=N)=O)c(Br)c(C)n2)ncc1F` (racemic) [Example 5, (rac)-5-Bromo-N-[5-fluoro-4-(4-fluoro-2-methoxyphenyl)pyridin-2-yl]-6-methyl-4-[(S-methylsulfonimidoyl)methyl]pyridin-2-amine], the IC50 in assay [1] (Homo sapiens, DU-145, 96 h) was 110 nM; in assay [2] (Homo sapiens, NCI-H460, 96 h) it was 120 nM; in assay [3] (Homo sapiens, Caco-2, 96 h) it was 110 nM; in assay [4] (Mus musculus, B16-F10, 96 h) it was 120 nM; in assay [5] (Homo sapiens, 96 h), 93 nM.

In the case of `CCOC(=O)N=S(C)(=O)Cc1cc(Nc2cc(-c3ccc(F)cc3OC)c(F)cn2)nc(OC)c1` (racemic) [Example 15, (rac)-ethyl{[(2-{[5-fluoro-4-(4-fluoro-2-methoxyphenyl)pyridin-2-yl]amino}-6-methoxypyridin-4-yl)methyl](methyl)oxido-λ^6-sulfanylidene}carbamate], the IC50 came to 31 nM in assay [1] (Homo sapiens, DU-145, 96 h); 32 nM in assay [2] (Homo sapiens, NCI-H460, 96 h); 39 nM in assay [3] (Homo sapiens, Caco-2, 96 h); 31 nM in assay [6] (Homo sapiens, 96 h); 45 nM in assay [4] (Mus musculus, B16-F10, 96 h); 40 nM in assay [5] (Homo sapiens, 96 h).

With `COc1cc(F)ccc1-c1cc(Nc2cc(CS(C)(=O)=NC(=O)C(F)(F)F)cc(F)n2)ncc1F` (racemic) [Example 18, (rac)-2,2,2-Trifluoro-N-{[(2-fluoro-6-{[5-fluoro-4-(4-fluoro-2-methoxyphenyl)pyridin-2-yl]amino}pyridin-4-yl)methyl](methyl)oxido-λ^6-sulfanylidene}acetamide], the IC50 came out at 41 nM in assay [1] (Homo sapiens, DU-145, 96 h); 110 nM in assay [2] (Homo sapiens, NCI-H460, 96 h); 43 nM in assay [3] (Homo sapiens, Caco-2, 96 h); 35 nM in assay [6] (Homo sapiens, 96 h); 68 nM in assay [4] (Mus musculus, B16-F10, 96 h); 61 nM in assay [5] (Homo sapiens, 96 h).

On to `CCOc1cc(F)ccc1-c1cc(Nc2cc(CS(C)(=O)=NC(=O)C(F)(F)F)cc(F)n2)ncc1F` (racemic) [Example 27, (rac)-N-{[(2-{[4-(2-Ethoxy-4-fluoro-phenyl)-5-fluoropyridin-2-yl]amino}-6-fluoropyridin-4-yl)methyl]-(methyl)oxido-λ^6-sulfanylidene}-2,2,2-trifluoroacetamide], for which the IC50 in assay [1] (Homo sapiens, DU-145, 96 h) turned out to be 110 nM; in assay [2] (Homo sapiens, NCI-H460, 96 h) it was 120 nM; in assay [3] (Homo sapiens, Caco-2, 96 h) it was 130 nM; in assay [6] (Homo sapiens, 96 h) it was 110 nM; in assay [4] (Mus musculus, B16-F10, 96 h), 150 nM; in assay [5] (Homo sapiens, 96 h) it was 100 nM.

In the case of `CCS(=N)(=O)Cc1ccnc(Nc2cc(-c3ccc(F)cc3OC)c(F)cn2)c1` (racemic) [Example 30, (rac)-N-{4-[(S-Ethylsulfonimidoyl)-methyl]pyridin-2-yl}-5-fluoro-4-(4-fluoro-2-methoxyphenyl)pyridin-2-amine], the IC50 in assay [1] (Homo sapiens, DU-145, 96 h) amounted to 82 nM; in assay [2] (Homo sapiens, NCI-H460, 96 h), 120 nM; in assay [3] (Homo sapiens, Caco-2, 96 h), 52 nM; in assay [6] (Homo sapiens, 96 h), 74 nM; in assay [4] (Mus musculus, B16-F10, 96 h) it was 120 nM; in assay [5] (Homo sapiens, 96 h) it was 100 nM.

`COc1cc(F)ccc1-c1cc(Nc2cc(CS(C)(=N)=O)cc(C(F)F)n2)ncc1F` (racemic) [Example 31, (rac)-N-{6-(Difluoromethyl)-4-[(S-methylsulfonimidoyl)methyl]pyridin-2-yl}-5-fluoro-4-(4-fluoro-2-methoxyphenyl)pyridin-2-amine]: the IC50 in assay [5] (Homo sapiens, 96 h) turned out to be 8 nM.

Turning to `COc1cc(F)ccc1-c1cc(Nc2cc(CS(C)(=N)=O)cc(F)n2)ncc1F` (single isomer, unassigned; (+)) [Example 19, (+)-5-Fluoro-4-(4-fluoro-2-methoxyphenyl)-N-{6-fluoro-4-[(S-methylsulfonimidoyl)methyl]pyridin-2-yl}pyridin-2-amine], the IC50 in assay [1] (Homo sapiens, DU-145, 96 h) was found to be 58 nM; in assay [2] (Homo sapiens, NCI-H460, 96 h), 110 nM; in assay [6] (Homo sapiens, 96 h), 64 nM; in assay [4] (Mus musculus, B16-F10, 96 h), 95 nM.

For `COc1cc(F)ccc1-c1cc(Nc2cc(CS(C)(=O)=NC(=O)C(F)(F)F)cc(C(F)(F)F)n2)ncc1F` (single isomer, unassigned; (+)) [Example 24, (+)-2,2,2-Trifluoro-N-[{[2-{[5-fluoro-4-(4-fluoro-2-methoxyphenyl)pyridin-2-yl]amino}-6-(trifluoromethyl)-pyridin-4-yl]methyl}(methyl)oxido-λ^6-sulfanylidene]acetamide], the IC50 was 33 nM in assay [1] (Homo sapiens, DU-145, 96 h); 33 nM in assay [2] (Homo sapiens, NCI-H460, 96 h); 41 nM in assay [3] (Homo sapiens, Caco-2, 96 h); 30 nM in assay [6] (Homo sapiens, 96 h); 43 nM in assay [4] (Mus musculus, B16-F10, 96 h); 32 nM in assay [5] (Homo sapiens, 96 h).

Consider `CCOc1cc(F)ccc1-c1cc(Nc2cc(CS(C)(=N)=O)cc(F)n2)ncc1F` (single isomer, unassigned; (+)) [Example 28, (+)-4-(2-Ethoxy-4-fluorophenyl)-5-fluoro-N-{6-fluoro-4-[(S-methylsulfonimidoyl)methyl]pyridin-2-yl}pyridin-2-amine], for which the IC50 in assay [1] (Homo sapiens, DU-145, 96 h) came out at 120 nM; in assay [2] (Homo sapiens, NCI-H460, 96 h), 190 nM; in assay [3] (Homo sapiens, Caco-2, 96 h), 120 nM; in assay [6] (Homo sapiens, 96 h), 120 nM; in assay [4] (Mus musculus, B16-F10, 96 h), 150 nM; in assay [5] (Homo sapiens, 96 h), 99 nM.

Take `COc1cc(F)ccc1-c1cc(Nc2cc(CS(C)(=N)=O)cc(F)n2)ncc1F` (single isomer, unassigned; (-)) [Example 20, (−)-5-Fluoro-4-(4-fluoro-2-methoxyphenyl)-N-{6-fluoro-4-[(S-methylsulfonimidoyl)methyl]pyridin-2-yl}pyridin-2-amine]: the IC50 in assay [1] was 58 nM; in assay [2] it was 100 nM; in assay [3] (Homo sapiens, Caco-2, 96 h) it was 45 nM; in assay [6] it was 38 nM; in assay [4], 54 nM; in assay [5] (Homo sapiens, 96 h), 30 nM.

As for `COc1cc(F)ccc1-c1cc(Nc2cc(CS(C)(=O)=NC(=O)C(F)(F)F)cc(C(F)(F)F)n2)ncc1F` (single isomer, unassigned; (-)) [Example 25, (−)-2,2,2-Trifluoro-N-[{[2-{[5-fluoro-4-(4-fluoro-2-methoxyphenyl)pyridin-2-yl]amino}-6-(trifluoromethyl)-pyridin-4-yl]methyl}(methyl)oxido-λ^6-sulfanylidene]acetamide], the IC50 in assay [1] turned out to be 37 nM; in assay [2] it was 36 nM; in assay [3] it was 45 nM; in assay [6] it was 30 nM; in assay [4], 50 nM; in assay [5] it was 35 nM.

For the molecule `CCOc1cc(F)ccc1-c1cc(Nc2cc(CS(C)(=N)=O)cc(F)n2)ncc1F` (single isomer, unassigned; (-)) [Example 29, (−)-4-(2-Ethoxy-4-fluorophenyl)-5-fluoro-N-{6-fluoro-4-[(S-methylsulfonimidoyl)methyl]pyridin-2-yl}pyridin-2-amine], the IC50 stood at 110 nM in assay [1]; 150 nM in assay [2]; 100 nM in assay [3]; 81 nM in assay [6]; 110 nM in assay [4]; 110 nM in assay [5].

Turning to `COc1cc(F)ccc1-c1cc(Nc2cc(CS(C)(=N)=O)ccn2)ncc1F` (single isomer, unassigned; enantiomer 1) [Example 16, 5-Fluoro-4-(4-fluoro-2-methoxyphenyl)-N-{4-[(S-methylsulfonimidoyl)methyl]pyridin-2-yl}pyridin-2-amine hydrochloride; enantiomer 1], the IC50 in assay [1] is 120 nM; in assay [2], 130 nM; in assay [3], 120 nM; in assay [6], 110 nM; in assay [4], 150 nM; in assay [5], 63 nM.
